From PMC8634768 (ChemistryOpen, 2021) come the findings set out here.

The target of one assay is PDHK1 (Homo sapiens, UniProt Q15118). As to the kind of experiment: HotSpot […]-ATP radiometric filter-binding kinase assay. The assay is classed as biochemical.
The target in the next assay is Hsp90α (Homo sapiens, UniProt P07900). As to the kind of experiment: fluorescence polarization competition with FITC-geldanamycin. In kind it is binding. A general note: Polarisation of emitted light reports the rotation of a fluorescent probe.

Chain of PDHK1 (Q15118 29-436): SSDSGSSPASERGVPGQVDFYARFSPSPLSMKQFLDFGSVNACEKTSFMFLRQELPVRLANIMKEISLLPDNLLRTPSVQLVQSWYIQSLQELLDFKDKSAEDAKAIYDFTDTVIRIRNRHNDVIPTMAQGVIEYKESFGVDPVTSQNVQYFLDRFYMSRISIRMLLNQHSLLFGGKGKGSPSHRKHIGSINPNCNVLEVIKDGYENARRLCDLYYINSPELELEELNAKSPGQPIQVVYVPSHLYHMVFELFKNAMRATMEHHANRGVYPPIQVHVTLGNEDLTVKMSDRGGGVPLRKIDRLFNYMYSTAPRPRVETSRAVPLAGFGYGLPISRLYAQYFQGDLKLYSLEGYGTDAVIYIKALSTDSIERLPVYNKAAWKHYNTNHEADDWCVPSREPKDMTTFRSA

As for `O=C1Nc2ccc(I)cc2C1=Cc1cc(Br)c(O)c(Br)c1` [GW5074, reference compound], on PDHK1, the IC50 was found to be 7100 nM. Take `CCS(=O)(=O)Nc1ccc(F)c(NC(=O)c2nnn(-c3cc(C(C)C)c(O)cc3O)c2-c2ccncc2)c1F` [4c, 1‐(2,4‐dihydroxy‐5‐isopropylphenyl)‐N‐[3‐(ethylsulfonamido)‐2,6‐difluorophenyl]‐5‐(pyridin‐4‐yl)‐1H‐1,2,3‐triazole‐4‐carboxamide]: at Hsp90α, the IC50 is 1100 nM. For the compound `CC(C)c1cc(-n2nnc(C(=O)Nc3cccc(NS(C)(=O)=O)c3)c2-c2ccncc2)c(O)cc1O` [4a, 1‐(2,4‐dihydroxy‐5‐isopropylphenyl)‐N‐[3‐(methylsulfonamido)phenyl]‐5‐(pyridin‐4‐yl)‐1H‐1,2,3‐triazole‐4‐carboxamide], the IC50 at PDHK1 worked out at 28700 nM; on Hsp90α, 7 nM. In the same order, the values of `CCCS(=O)(=O)Nc1ccc(F)c(NC(=O)c2nnn(-c3cc(C(C)C)c(O)cc3O)c2-c2ccncc2)c1F` [4d, N‐[2,6‐difluoro‐3‐(propylsulfonamido)phenyl]‐1‐(2,4‐dihydroxy‐5‐isopropylphenyl)‐5‐(pyridin‐4‐yl)‐1H‐1,2,3‐triazole‐4‐carboxamide] are 38300 nM and 30 nM. The compound `CC(C)c1cc(-n2nnc(C(=O)Nc3c(F)ccc(NS(C)(=O)=O)c3F)c2-c2ccncc2)c(O)cc1O` [4b, N‐[2,6‐difluoro‐3‐(methylsulfonamido)phenyl]‐1‐(2,4‐dihydroxy‐5‐isopropylphenyl)‐5‐(pyridin‐4‐yl)‐1H‐1,2,3‐triazole‐4‐carboxamide] displayed an IC50 on Hsp90α of 1700 nM.

A word on the IC50: it is the concentration needed to halve the response being measured. Low readings indicate greater potency in that assay, high ones weaker potency in that assay.
